{"source": "ChEMBL document CHEMBL4706479", "about": "“Novel Aryloxyethyl Derivatives of 1-(1-Benzoylpiperidin-4-yl)methanamine as the Extracellular Regulated Kinases 1/2 (ERK1/2) Phosphorylation-Preferring Serotonin 5-HT Receptor-Biased Agonists with Robust Antidepressant-like Activity” (J Med Chem, 2019)", "key": {"Rattus norvegicus [1]": {"tested_on": "Rattus norvegicus", "test": "In vivo biased agonist activity at 5-HT1A receptor in rat prefrontal brain cortex assessed as increase in ERK1/2 phosphorylation levels at […], po administered as single dose measured after 30 mins by Alphalisa assay", "type": "functional, organism-based"}, "[2]": {"molecular_target": "Prostaglandin G/H synthase 2 (Homo sapiens) (UniProt P35354)", "sequence (P35354 whole entry)": "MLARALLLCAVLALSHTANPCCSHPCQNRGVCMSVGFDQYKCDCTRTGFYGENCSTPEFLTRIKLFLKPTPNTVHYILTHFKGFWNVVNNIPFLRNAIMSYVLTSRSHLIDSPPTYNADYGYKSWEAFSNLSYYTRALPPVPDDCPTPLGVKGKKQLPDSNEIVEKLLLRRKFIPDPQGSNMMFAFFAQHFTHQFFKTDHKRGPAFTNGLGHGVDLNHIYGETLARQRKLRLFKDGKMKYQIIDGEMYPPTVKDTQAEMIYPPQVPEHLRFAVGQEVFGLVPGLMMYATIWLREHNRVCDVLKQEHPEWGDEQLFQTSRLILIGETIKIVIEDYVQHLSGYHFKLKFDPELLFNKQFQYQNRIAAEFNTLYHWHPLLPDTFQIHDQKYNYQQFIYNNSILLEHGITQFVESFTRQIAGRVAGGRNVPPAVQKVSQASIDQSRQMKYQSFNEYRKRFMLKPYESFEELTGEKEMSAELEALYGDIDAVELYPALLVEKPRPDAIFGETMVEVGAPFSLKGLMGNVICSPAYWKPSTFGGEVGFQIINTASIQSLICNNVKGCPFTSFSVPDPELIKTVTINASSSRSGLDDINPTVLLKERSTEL", "test": "Inhibition of COX2 (unknown origin) at 10 uM relative to control"}, "Rattus norvegicus [3]": {"tested_on": "Rattus norvegicus", "test": "In vivo biased agonist activity at 5-HT1A receptor in rat prefrontal brain cortex assessed as increase in ERK1/2 phosphorylation levels at 0.04 to […], po measured at 15 mins by Alphalisa assay", "type": "functional, organism-based", "conditions": "dose lower 0.04 mg/kg, dose upper […]"}, "[4]": {"molecular_target": "Cannabinoid receptor 1 (Homo sapiens) (UniProt P21554)", "sequence (P21554 whole entry)": "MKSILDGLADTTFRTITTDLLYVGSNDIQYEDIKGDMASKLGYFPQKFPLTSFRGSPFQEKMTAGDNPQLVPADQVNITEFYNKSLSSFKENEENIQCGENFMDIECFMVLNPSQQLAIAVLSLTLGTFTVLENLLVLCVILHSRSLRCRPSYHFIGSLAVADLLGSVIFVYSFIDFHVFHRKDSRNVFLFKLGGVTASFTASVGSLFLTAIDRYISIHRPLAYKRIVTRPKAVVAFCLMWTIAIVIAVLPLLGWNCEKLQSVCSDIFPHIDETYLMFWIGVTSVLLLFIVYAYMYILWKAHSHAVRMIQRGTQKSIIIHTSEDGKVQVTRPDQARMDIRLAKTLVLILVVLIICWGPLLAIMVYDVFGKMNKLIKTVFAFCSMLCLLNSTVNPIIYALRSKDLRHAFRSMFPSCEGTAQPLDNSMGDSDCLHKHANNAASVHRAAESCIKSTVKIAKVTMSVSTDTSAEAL", "test": "Inhibition of cannabinoid receptor 1 (unknown origin) at 10 uM relative to control"}, "[5]": {"test": "In vivo biased agonist activity at 5-HT1A receptor in rat prefrontal cortex assessed as serum concentration causing 50% increase in ERK1/2 phosphorylation level after oral administration measured 15 mins post drug administration"}, "Homo sapiens": {"species_on_record": "Homo sapiens", "test": "Inhibition of L-type calcium channel dihydropyridine binding site (unknown origin) at 10 uM relative to control"}, "[6]": {"molecular_target": "5-hydroxytryptamine receptor 1B (Homo sapiens) (UniProt P28222)", "sequence (P28222 whole entry)": "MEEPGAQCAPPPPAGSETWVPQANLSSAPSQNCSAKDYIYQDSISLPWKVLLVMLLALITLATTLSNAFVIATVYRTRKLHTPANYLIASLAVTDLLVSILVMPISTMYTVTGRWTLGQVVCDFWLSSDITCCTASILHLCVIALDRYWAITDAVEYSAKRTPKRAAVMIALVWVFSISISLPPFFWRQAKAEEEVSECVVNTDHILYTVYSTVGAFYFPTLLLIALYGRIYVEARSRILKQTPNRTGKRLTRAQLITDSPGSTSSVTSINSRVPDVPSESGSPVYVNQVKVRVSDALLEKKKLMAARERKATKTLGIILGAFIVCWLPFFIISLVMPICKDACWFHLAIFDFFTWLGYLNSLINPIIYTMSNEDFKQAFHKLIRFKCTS", "test": "Inhibition of 5-HT1B (unknown origin) at 10 uM relative to control"}, "Rattus norvegicus [7]": {"tested_on": "Rattus norvegicus", "test": "Antidepressant-like activity in Wistar rat assessed as minimum effective dose causing reduction in immobility time after oral administration with compound 60 mins prior to testing and measured for 5 mins test period by Porsolt-forced swim test", "type": "functional", "conditions": "1.083 h, time 65 min, read-out: MED"}, "[8]": {"molecular_target": "Histamine H1 receptor (Homo sapiens) (UniProt P35367)", "sequence (P35367 whole entry)": "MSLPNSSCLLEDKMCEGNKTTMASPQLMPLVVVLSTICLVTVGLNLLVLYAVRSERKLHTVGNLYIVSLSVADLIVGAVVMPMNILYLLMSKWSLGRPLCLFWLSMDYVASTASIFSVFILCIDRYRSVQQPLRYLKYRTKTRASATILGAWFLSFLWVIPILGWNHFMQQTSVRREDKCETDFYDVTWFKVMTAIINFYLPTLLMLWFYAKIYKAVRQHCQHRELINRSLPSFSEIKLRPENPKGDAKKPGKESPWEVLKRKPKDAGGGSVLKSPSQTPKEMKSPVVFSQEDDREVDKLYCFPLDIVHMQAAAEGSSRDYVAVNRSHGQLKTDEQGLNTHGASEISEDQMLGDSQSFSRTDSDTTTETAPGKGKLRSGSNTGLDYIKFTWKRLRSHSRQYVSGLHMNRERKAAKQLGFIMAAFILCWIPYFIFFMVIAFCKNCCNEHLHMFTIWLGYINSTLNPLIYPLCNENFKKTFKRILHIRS", "test": "Inhibition of histamine H1 receptor (unknown origin) at 10 uM relative to control"}, "[9]": {"test": "Tmax in Wistar rat at […], po measured after 60 mins by HPLC analysis", "type": "ADME, organism-based", "conditions": "in vivo, dose 2.5 mg/kg"}, "CYP3A4": {"molecular_target": "CYP3A4 (Homo sapiens, UniProt P08684)", "sequence (P08684 whole entry)": "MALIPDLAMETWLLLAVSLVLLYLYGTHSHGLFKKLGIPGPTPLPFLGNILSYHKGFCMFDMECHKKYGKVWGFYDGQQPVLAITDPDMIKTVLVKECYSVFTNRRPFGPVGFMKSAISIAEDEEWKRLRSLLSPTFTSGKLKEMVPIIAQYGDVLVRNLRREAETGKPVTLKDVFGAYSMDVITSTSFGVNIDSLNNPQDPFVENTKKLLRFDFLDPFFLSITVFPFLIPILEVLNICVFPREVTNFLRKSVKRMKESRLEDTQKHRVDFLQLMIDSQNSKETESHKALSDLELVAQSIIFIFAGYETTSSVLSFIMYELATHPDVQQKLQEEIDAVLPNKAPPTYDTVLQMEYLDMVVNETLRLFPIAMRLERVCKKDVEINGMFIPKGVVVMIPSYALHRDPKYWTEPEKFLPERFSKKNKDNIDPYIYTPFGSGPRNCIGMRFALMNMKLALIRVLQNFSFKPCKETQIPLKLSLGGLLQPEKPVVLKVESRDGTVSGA", "test": "Inhibition of human recombinant CYP3A4 at 10 uM relative to control", "type": "ADME"}, "Rattus norvegicus [10]": {"tested_on": "Rattus norvegicus", "test": "Antidepressant-like activity in Wistar rat assessed as serum concentration causing 50% reduction in immobility time after oral administration of compound and measured after 15 mins by Porsolt-forced swim test", "type": "functional"}, "[11]": {"test": "Toxicity in Wistar rat assessed as effect on flat body posture at 0.04 to […], po observed after 60 mins post treatment", "type": "organism-based", "conditions": "in vivo, 1 h, dose 0.04-2.5 mg/kg"}, "[12]": {"test": "Intrinsic clearance in human liver microsomes at 0.1 uM", "type": "ADME, Microsome", "conditions": "read-out: CLH"}, "[13]": {"test": "Permeability of compound across basolateral to apical side in human Caco-2 cells at pH 7.4", "type": "ADME, cell-based", "conditions": "Caco-2, pH 7.4, read-out: permeability"}}, "note": "Active and inactive are the calls of the source. No cut-off for these calls is given here."}
{"smiles": "O=C(c1ccc(F)c(Cl)c1)N1CCC(F)(CNCCOc2ccccn2)CC1", "values": [{"measurement": "Activity", "setting": "Rattus norvegicus [1]", "result": "Active"}, {"measurement": "inhibition", "setting": "[2]", "result": -9.2, "unit": "%"}, {"measurement": "Activity", "setting": "Rattus norvegicus [3]", "result": "Active"}, {"measurement": "inhibition", "setting": "[4]", "result": 0.4, "unit": "%"}, {"measurement": "EC", "setting": "[5]", "result": 17.2, "unit": "ng/mL"}, {"measurement": "inhibition", "setting": "Homo sapiens", "result": 18.2, "unit": "%"}, {"measurement": "inhibition", "setting": "[6]", "result": -9.1, "unit": "%"}, {"measurement": "minimal effective dose", "setting": "Rattus norvegicus [7]", "result": 0.16, "unit": "mg/kg"}, {"measurement": "inhibition", "setting": "[8]", "result": -0.5, "unit": "%"}, {"measurement": "Tmax at 1 h", "setting": "[9]", "result": 15, "unit": "min"}, {"measurement": "inhibition at 10 µM", "setting": "CYP3A4", "result": 23.2, "unit": "%"}, {"measurement": "EC", "setting": "Rattus norvegicus [10]", "result": 6.76, "unit": "ng/mL"}, {"measurement": "Activity", "setting": "[11]", "result": "Non-Toxic"}, {"measurement": "microsomal CLint at 0.1 µM", "setting": "[12]", "result": "< 115", "unit": "µL/min/mg"}, {"measurement": "Papp B→A", "setting": "[13]", "result": 22.4, "unit": "×10⁻⁶ cm/s"}]}
